In paper PMC8112869, “Therapeutic inhibition of keratinocyte TRPV3 sensory channel by local anesthetic dyclonine” (eLife, 2021):

Columns and labels:
[1] = system: T-Rex 293 cells expressing WT TRPV3; test: Cell death analysis by flow cytometry (propidium iodide), cells expressing WT TRPV3; type: cell-based, Homo sapiens
Protocol: T-Rex 293 cells were grown in DMEM containing 4.5 mg/ml glucose, 10% (vol/vol) FBS, 50 units/ml penicillin, 50 μg/ml streptomycin, and blasticidin S (10 μg/ml), and were incubated at 37°C in a humidified incubator gassed with 5% CO2. Transfections were performed in wells of a 24-well plate using lipofectamine 2000 (Invitrogen). […] Expression of GFP fluorescence detected by an epifluorescence microscope was used as an indicator of gene expression. After treatments with the compounds for 12 hr, cells were collected, washed twice with PBS, resuspended, and then dyed with propidium iodide (PI, Thermo Fisher Scientific) in the dark according to the manufacturer’s instructions. The membrane integrity of the cells was assessed using a BD FACSCelesta flow cytometer equipped with BD Accuri C6 software (BD Biosciences, USA).

mouse TRPV3 = molecular target: T1, mouse TRPV3 (Mus musculus, UniProt Q8K424); test: Single-channel inside-out patch recording of TRPV3 from HEK 293T cells; type: cell-based; set-up: expressed in transfected cells; host or cells: HEK 293T
T1 sequence (Q8K424 1-791): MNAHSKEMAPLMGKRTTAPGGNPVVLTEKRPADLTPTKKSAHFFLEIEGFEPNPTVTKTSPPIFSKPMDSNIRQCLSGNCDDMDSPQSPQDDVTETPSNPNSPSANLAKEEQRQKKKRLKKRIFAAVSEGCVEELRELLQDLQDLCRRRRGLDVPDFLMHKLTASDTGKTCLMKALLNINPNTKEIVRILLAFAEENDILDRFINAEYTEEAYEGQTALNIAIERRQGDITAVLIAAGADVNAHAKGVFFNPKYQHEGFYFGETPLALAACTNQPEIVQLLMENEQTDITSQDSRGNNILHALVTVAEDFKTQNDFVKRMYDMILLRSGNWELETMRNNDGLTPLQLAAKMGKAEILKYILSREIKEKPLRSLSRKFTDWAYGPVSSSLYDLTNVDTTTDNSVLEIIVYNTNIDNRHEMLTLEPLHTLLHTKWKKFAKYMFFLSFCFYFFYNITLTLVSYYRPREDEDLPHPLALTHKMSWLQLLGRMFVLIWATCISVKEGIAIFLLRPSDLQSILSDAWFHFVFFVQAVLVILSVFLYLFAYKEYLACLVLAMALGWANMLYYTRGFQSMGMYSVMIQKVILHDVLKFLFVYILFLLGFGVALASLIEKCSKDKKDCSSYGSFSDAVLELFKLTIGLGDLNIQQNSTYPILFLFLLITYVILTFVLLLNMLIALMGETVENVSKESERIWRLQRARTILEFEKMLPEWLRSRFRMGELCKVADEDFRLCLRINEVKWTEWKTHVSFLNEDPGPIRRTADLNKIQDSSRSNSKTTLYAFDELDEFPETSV
Description: Conventional whole-cell and excised patch-clamp recording methods were used. For the recombinant expressing system, green fluorescent EGFP was used as a surface marker for gene expression. Recording pipettes were pulled from borosilicate glass capillaries (World Precision Instruments) and fire-polished to a resistance between 2 and 4 MΩ when filled with internal solution containing (in mM) 140 CsCl, 2.0 MgCl2, 5 EGTA, and 10 HEPES, pH 7.4 (adjusted with CsOH). Bath solution contained (in mM): 140 NaCl, 5 KCl, 3 EGTA, and 10 HEPES, pH 7.4 adjusted with NaOH. For recordings in keratinocytes, the bath saline consisted of (in mM) 140 NaCl, 5 KCl, 2 MgCl2, 2 CaCl2, 10 glucoses, and 10 HEPES, pH 7.4 adjusted with NaOH, and the pipette solution contained (in mM) 140 CsCl, 5 EGTA, and 10 HEPES, pH 7.3 adjusted with CsOH. For single-channel recordings, the pipette solution and bath solution were symmetrical and contained (in mM) 140 NaCl, 5 KCl, 3 EGTA, and 10 HEPES, pH 7.4. Isolated cells were voltage clamped and held at –60 mV using an EPC10 amplifier with the Patchmaster software (HEKAElectronics, Lambrecht, Germany). For a subset of recordings, currents were amplified using an Axopatch 200B amplifier (Molecular Devices, Sunnyvale, CA) and recorded through a BNC-2090/MIO acquisition system (National Instruments, Austin, TX) using QStudio developed by Dr. Feng Qin at State University of New York at Buffalo. Whole-cell recordings were typically sampled at 5 kHz and filtered at 1 kHz, and single-channel recordings were sampled at 25 kHz and filtered at 10 kHz. The compensation of pipette series resistance and capacitance was compensated using the built-in circuitry of the amplifier (>80%) to reduce voltage errors. Exchange of external solution was performed using a gravity-driven local perfusion system. As determined by the conductance tests, the solution around a patch under study was fully controlled by the application of a flow rate of 100 μl/min or greater. Dyclonine hydrochloride, MTSET and carvacrol were purchased from MCE (MedChemExpress). Unless otherwise noted, all chemicals were purchased from Sigma (Millipore Sigma, St. Louis, MO). Water-insoluble reagents were dissolved in pure ethanol or DMSO to make a stock solution and diluted into the recording solution at the desired final concentrations before the experiment. […] In the scratching behavior experiments, carvacrol was first dissolved in 10% ethanol and then diluted in normal saline before administration. All experiments except those for heat activation were performed at room temperature (22–24℃).

NCCOB(c1ccccc1)c1ccccc1 [2-APB, 2-aminoethoxydiphenyl borate]
cell death ratio ([1]; 2-APB (30 μM) alone, 12 hr, averaged from seven experiments): 43.73% ± 3.46%
unitary conductance (mouse TRPV3; 10 μM 2-APB before dyclonine treatment): 163.6 ± 6.4 pS
single-channel open probability (mouse TRPV3; 10 μM 2-APB without dyclonine, +60 mV): 0.82 ± 0.02
single-channel open probability (mouse TRPV3; 10 μM 2-APB without dyclonine, –60 mV): 0.8 ± 0.02

CCCCOc1ccc(C(=O)CCN2CCCCC2)cc1 [dyclonine]
cell death ratio ([1]; dyclonine (50 μM) added to 2-APB (30 μM), averaged): 9.12% ± 1.42%
unitary conductance (mouse TRPV3; 10 μM 2-APB with 30 μM dyclonine): 179.2 ± 5.5 pS
single-channel open probability (mouse TRPV3; 30 μM dyclonine with 10 μM 2-APB, +60 mV): 0.12 ± 0.01
single-channel open probability (mouse TRPV3; 30 μM dyclonine with 10 μM 2-APB, –60 mV): 0.08 ± 0.01
